In PMC3243694, “Integrated Dataset of Screening Hits against Multiple Neglected Disease Pathogens” (PLoS Neglected Tropical Diseases, 2011):
In brackets after ≈: the same amount, converted by molar mass.

Experiments:
[1] = system: Trypanosoma cruzi, Tulahuen CL2 strain; assay: Antitrypanosomal activity assay, T. cruzi in MRC-5 cells; type: cell-based; conditions: T. cruzi Tulahuen CL2 in MRC-5 cells, 7 days
Method: (§1) The compound set was tested against the following parasites: intra-erythrocytic forms in human red blood cells of P. falciparum K1 strain (malaria), [16], [32], [33], [35], bloodstream forms of T. brucei Squib 427 strain (human African trypanosomiasis, HAT), [31], [32], [34], intracellular amastigotes of T. cruzi Tulahuen CL2, beta- galactosidase strain (Chagas' Disease), [32]–[35], intracellular amastigotes of L. infantum MHOM/MA(BE)/67 (leishmaniasis), [32]–[36], larval and/or adult worms of S. mansoni Puerto Rican strain (schistosomiasis), [31], [37], microfilariae of B. malayi (lymphatic filariasis), [30] and microfilariae of O. ochengi or O. lienalis (onchocerciasis), [30]. It should be noted that the human pathogen for onchocerciasis is Onchocerca volvulus, but due to lack of a suitable in vitro assay or animal models for this pathogen, O. ochengi and lienalis, which are both animal pathogens, are used in the primary and secondary assays, [30].
171 of the 744 actives passed the initial criterion of IC50<1 µg/ml for T. cruzi Tulahuen CL2, beta galactosidase strain maintained on MRC-5SV2 cells in MEM medium (MRC-5 cell/parasite inoculum: 4.10^3 cells/well+4.10^4 parasites/well), supplemented with […] L-glutamine, 16.5 mM NaHCO3 and 5% heat inactivated fetal calf serum. […] Of these, 109 were eliminated [structures #1–6] for poor selectivity versus mammalian cells (SI<50) and an additional 11 due to undesirable chemical attributes. The remaining 51 compounds were sorted into 10 series (45 compounds) and 6 singletons [structures # 21, 22]. Two of these series with excellent potency against T. cruzi, limited activity against other protozoa and SI values >50 (not shown), have been transferred to DNDi for further evaluation.

[2] = system: Plasmodium falciparum K1 strain; assay: Anti-Plasmodium activity assay (Malstat); type: cell-based; conditions: P. falciparum K1, 72 h
Method: as §1

[3] = system: Brugia malayi adult worms; assay: Anti-Brugia malayi adult worm motility assay; type: cell-based; conditions: B. malayi adult worms
Excerpt: In some cases, particularly for the antifilarial screens, a second whole organism test with adult stage parasites is included prior to animal evaluation. The decision to utilize microfilariae for primary screening was based on throughput and biological considerations. It is difficult to acquire enough adult filariae to enable screening more than 1000 compounds per year, a rate far lower than needed for timely evaluation of the available compounds. In light of this situation, and considering that we are targeting molecules that are active on both stages, microfilariae screening was adopted as a suitable filter to identify compounds with potential macrofilaricidal activity. As result of logistics issues attributed to lost shipments of some compounds, only 6160 molecules of the 10,000 compound set were tested, at a uniform molarity, against B. malayi, including 6063 against microfilariae and 756 against adult worms (these sets overlap). […] Greatest priority was given to compounds with activity against adult worms, as no macrofilaricide is available for use in control campaigns and the activity of ivermectin as a microfilaricidal agent is unlikely to be bettered in a new series. […] These were titrated to determine an IC50 value to support prioritization. Following cytotoxicity triage [structures # 1, 4, 6], eight compounds met the activity criterion for adult worms (i.e., 100% inhibition of adult worm motility), four of which were also active against microfilariae [structures # 14, 29, 30, 32]. […] Of these, the most interesting was TDR76699 [structure # 29]; this compound has very good activity against adult worms (IC50 = 0.1 µg/ml) and is also active against microfilariae (IC50 = 0.7 µg/ml). None of the other compounds tested against adult parasites had IC50 values ≤0.5 µg/ml, a threshold which would reduce concerns about specificity. However, a few series [structures # 31, 33, 34], appear interesting for future medicinal chemistry projects.

[4] = system: Onchocerca (lienalis or ochengi) microfilariae; assay: Anti-Onchocerca microfilariae motility assay; type: cell-based, Onchocerca lienalis or O. ochengi
Method: as §1
4240 compound s were screened against O. ochengi at the University of Buea in Cameroon, while a subset of […] compounds was successfully screened in UK by the Northwick Park Institute for Medical Research against O. lienalis, at a uniform molarity. […] After removing molecules that were toxic to mammalian cells (IC50<5 µg/ml), 292 molecules remained for further evaluation. […] From the latter sub-set, […] distinct chemical series and one singleton [structure # 35] were active against both microfilaria and adults. One series [structures # 2, 3] was deemed not interesting due to lack of selectivity against mammalian cells. The remaining series is being transferred to ANDI for further progression as part of a new collaboration.

[5] = system: Schistosoma mansoni adult worms; assay: Anti-Schistosoma activity assay (adult worm motility); type: cell-based; conditions: S. mansoni adult worms; 12.5 µM (method: 10 µg/ml or 12.5 µM)
Method: as §1
A subset of 9478 of the 10,000 compound collection was tested against the Puerto Rican strain of S. mansoni. 6144 of these were tested in a primary larval assay followed by the ex-vivo adult secondary screen. The remainder was screened only in the adult assay. […] The 65 compounds were sorted by chemical attractiveness, potency against adult schistosomes in culture, selectivity against other parasites, and toxicity to mammalian cells in culture. Based on this analysis, 5 series encompassing 13 compounds were chosen for advancement through the African Network for Drug and Diagnostic Innovation (ANDI) and other PDPs. Representative structures [structures # 13, 27, 28] are shown (Table S1). These compounds are unburdened by obvious toxic moieties, have acceptable compliance with the Lipinski rules, are selectively active against schistosomes and are not overtly toxic to mammalian cells. It has unfortunately not been possible to titrate all of these hits in culture; of about 50% for which such data are available, none has an IC50<2 µg/ml (which is the initial potency criteria).

[6] = system: MRC-5 cell line (diploid human embryonic lung fibroblast); assay: Cytotoxicity on MRC-5 cells; type: cell-based
Excerpt: [table] An important part of the screen is the evaluation of all compounds for cytotoxicity using the diploid human embryonic lung fibroblast MRC-5 cell line (Figure 2). Further evaluation of cytotoxicity also takes advantage of the assays for intracellular protozoan parasites, as in the case of L. infantum and T. cruzi, which include murine peritoneal macrophage host cells and MRC-5SV2 human lung fibroblast cells, respectively, in the culture system.

[7] = system: Trypanosoma brucei brucei Squib-427 strain; assay: Antitrypanosomal activity assay, T. brucei (resazurin); type: cell-based; conditions: T. brucei Squib 427 bloodstream forms, 72 h
Method: as §1

[8] = system: Brugia malayi microfilariae; assay: Anti-Brugia malayi microfilariae motility assay; type: cell-based; conditions: B. malayi microfilariae
Method: as §1
As result of logistics issues attributed to lost shipments of some compounds, only 6160 molecules of the 10,000 compound set were tested, at a uniform molarity, against B. malayi, including 6063 against microfilariae and 756 against adult worms (these sets overlap). […] Greatest priority was given to compounds with activity against adult worms, as no macrofilaricide is available for use in control campaigns and the activity of ivermectin as a microfilaricidal agent is unlikely to be bettered in a new series. Of the test set, 53 compounds met the activity criterion for microfilariae (100% motility reduction) and an additional 58 inhibited adult worm motility ≥75% at 10 µM. These were titrated to determine an IC50 value to support prioritization. Following cytotoxicity triage [structures # 1, 4, 6], eight compounds met the activity criterion for adult worms (i.e., 100% inhibition of adult worm motility), four of which were also active against microfilariae [structures # 14, 29, 30, 32]. […] Of these, the most interesting was TDR76699 [structure # 29]; this compound has very good activity against adult worms (IC50 = 0.1 µg/ml) and is also active against microfilariae (IC50 = 0.7 µg/ml). None of the other compounds tested against adult parasites had IC50 values ≤0.5 µg/ml, a threshold which would reduce concerns about specificity. However, a few series [structures # 31, 33, 34], appear interesting for future medicinal chemistry projects.

Structure (SMILES)	CHA IC50 [1]	MAL IC50 [2]	LF/AW % Motility Reduction at 12.5µM [3]	ONC/MF % Motility Reduction at 12.5µM [4]	SCH % Motility Reduction at 12.5µM [5]	CYT IC50 [6]	HAT IC50 [7]	LF/MF % Motility Reduction at 12.5µM [8]	IC50 adult worms ([3]; titration)	IC50 microfilariae ([8]; titration)
O=C(COc1ccc(Cl)cc1Cl)Nc1nnc(C23CC4CC(CC(C4)C2)C3)s1 [TDR76660]	>13.15 µg/mL	>13.15 µg/mL	0%	0%	0%	>13.15 µg/mL	>13.15 µg/mL	100%	–	–
Cc1cccc(-n2nc3c(c2NC(=O)Nc2cccc(Cl)c2)CSC3)c1 [TDR76699]	9.48 µg/mL	>11.55 µg/mL	100%	33%	25%	>11.55 µg/mL	>11.55 µg/mL	100%	0.1 µg/mL (≈ 0.26 µM)	0.7 µg/mL (≈ 1.82 µM)
CCOC(=O)c1ccc(NC(=O)CSc2nnc(NC(=O)C34CC5CC(CC(C5)C3)C4)s2)cc1 [TDR76705]	>15.02 µg/mL	>15.02 µg/mL	100%	33.3%	0%	>15.02 µg/mL	>15.02 µg/mL	100%	–	–
CCC(=O)c1c(NC(=O)c2ccc(C)cc2)sc2c1CCN(CC)C2 [TDR76871]	0.48 µg/mL	1.87 µg/mL	22.3%	0%	0%	>11.79 µg/mL	0.32 µg/mL	33.3%	–	–
COC(=O)c1c(NC(=O)c2cc3ccccc3oc2=O)sc2c1CCN(Cc1ccccc1)C2 [TDR76873]	0.64 µg/mL	>15.33 µg/mL	100%	40%	0%	8.92 µg/mL	>15.33 µg/mL	100%	–	–
O=C(Nc1nc2c(s1)CSc1ccccc1-2)C1COc2ccccc2O1 (centres unmarked) [TDR77035]	0.5 µg/mL	4.75 µg/mL	0%	100%	100%	2.62 µg/mL	0.37 µg/mL	33%	–	–
